According to ChEMBL document CHEMBL1129046, “Structure-activity relationships of the antimalarial agent artemisinin. 4. Effect of substitution at C-3” (1996):

Tested on: Plasmodium falciparum
Experiment: Relative in vitro activity against drug-resistant Plasmodium falciparum D6
Assay type: functional

Point of comparison: CCOC(=O)CC[C@@]12CC[C@H]3[C@H](C)CC[C@H]4CC(=O)O[C@H](O1)[C@]43OO2, Relative activity 232. Against it:
- CC(C)C[C@@]12CC[C@H]3[C@H](C)CC[C@H]4CC(=O)O[C@H](O1)[C@]43OO2 — lower, 53
- CCCC[C@H]1C(=O)O[C@@H]2O[C@@]3(CC)CC[C@H]4[C@H](C)CC[C@@H]1[C@@]24OO3 — lower, 184
- CCCC[C@H]1C(=O)O[C@@H]2O[C@@]3(CCCCc4ccccc4)CC[C@H]4[C@H](C)CC[C@@H]1[C@@]24OO3 — lower, 39
- CCCC[C@H]1C(=O)O[C@@H]2O[C@@]3(CCCC)CC[C@H]4[C@H](C)CC[C@@H]1[C@@]24OO3 — lower, 28
- CC[C@@]12CC[C@H]3[C@H](C)CC[C@H]4CC(=O)O[C@H](O1)[C@]43OO2 — lower, 88
- C[C@@H]1CC[C@H]2CC(=O)O[C@@H]3O[C@@]4(CCCCc5ccccc5)CC[C@@H]1[C@@]23OO4 — lower, 220
- CCCC[C@H]1C(=O)O[C@@H]2O[C@@]3(CCc4ccccc4)CC[C@H]4[C@H](C)CC[C@@H]1[C@@]24OO3 — lower, 1
- CCCC[C@H]1C(=O)O[C@@H]2O[C@@]3(CCC(=O)OCC)CC[C@H]4[C@H](C)CC[C@@H]1[C@@]24OO3 — higher, 1382
- C[C@@H]1CC[C@H]2[C@@H](C)C(=O)O[C@@H]3O[C@@]4(C)CC[C@@H]1[C@]32OO4 [ARTEMISININ] — lower, 100
- C[C@@H]1CC[C@H]2CC(=O)O[C@@H]3O[C@@]4(CCCc5ccc(Cl)cc5)CC[C@@H]1[C@@]23OO4 — lower, 114
- C[C@@H]1CC[C@H]2CC(=O)O[C@@H]3O[C@@]4(CCc5ccccc5)CC[C@@H]1[C@@]23OO4 — lower, 3
- CCCC[C@@]12CC[C@H]3[C@H](C)CC[C@H]4CC(=O)O[C@H](O1)[C@]43OO2 — lower, 20
- CCC[C@@]12CC[C@H]3[C@H](C)CC[C@H]4CC(=O)O[C@H](O1)[C@]43OO2 — higher, 2102
- CCCC[C@H]1C(=O)O[C@@H]2O[C@@]3(CCCc4ccc(Cl)cc4)CC[C@H]4[C@H](C)CC[C@@H]1[C@@]24OO3 — lower, 43

Tested on: Plasmodium falciparum
Experiment: Relative in vitro activity against drug-resistant Plasmodium falciparum W-6
Assay type: functional

Point of comparison: C[C@@H]1CC[C@H]2CC(=O)O[C@@H]3O[C@@]4(CCCc5ccc(Cl)cc5)CC[C@@H]1[C@@]23OO4, Relative activity 127. Against it:
- CC(C)C[C@@]12CC[C@H]3[C@H](C)CC[C@H]4CC(=O)O[C@H](O1)[C@]43OO2 — lower, 45
- CCCC[C@H]1C(=O)O[C@@H]2O[C@@]3(CC)CC[C@H]4[C@H](C)CC[C@@H]1[C@@]24OO3 — higher, 257
- CCCC[C@H]1C(=O)O[C@@H]2O[C@@]3(CCCCc4ccccc4)CC[C@H]4[C@H](C)CC[C@@H]1[C@@]24OO3 — lower, 48
- CCCC[C@H]1C(=O)O[C@@H]2O[C@@]3(CCCC)CC[C@H]4[C@H](C)CC[C@@H]1[C@@]24OO3 — lower, 33
- CC[C@@]12CC[C@H]3[C@H](C)CC[C@H]4CC(=O)O[C@H](O1)[C@]43OO2 — lower, 112
- C[C@@H]1CC[C@H]2CC(=O)O[C@@H]3O[C@@]4(CCCCc5ccccc5)CC[C@@H]1[C@@]23OO4 — higher, 281
- CCCC[C@H]1C(=O)O[C@@H]2O[C@@]3(CCc4ccccc4)CC[C@H]4[C@H](C)CC[C@@H]1[C@@]24OO3 — lower, 1
- CCCC[C@H]1C(=O)O[C@@H]2O[C@@]3(CCC(=O)OCC)CC[C@H]4[C@H](C)CC[C@@H]1[C@@]24OO3 — higher, 2285
- C[C@@H]1CC[C@H]2[C@@H](C)C(=O)O[C@@H]3O[C@@]4(C)CC[C@@H]1[C@]32OO4 [ARTEMISININ] — lower, 100
- C[C@@H]1CC[C@H]2CC(=O)O[C@@H]3O[C@@]4(CCc5ccccc5)CC[C@@H]1[C@@]23OO4 — lower, 1
- CCCC[C@@]12CC[C@H]3[C@H](C)CC[C@H]4CC(=O)O[C@H](O1)[C@]43OO2 — lower, 18
- CCC[C@@]12CC[C@H]3[C@H](C)CC[C@H]4CC(=O)O[C@H](O1)[C@]43OO2 — higher, 673
- CCCC[C@H]1C(=O)O[C@@H]2O[C@@]3(CCCc4ccc(Cl)cc4)CC[C@H]4[C@H](C)CC[C@@H]1[C@@]24OO3 — lower, 53
- CCOC(=O)CC[C@@]12CC[C@H]3[C@H](C)CC[C@H]4CC(=O)O[C@H](O1)[C@]43OO2 — higher, 232
